From patent US20080200467A1, “SOLUBLE EPOXIDE HYDROLASE INHIBITORS” (Arete Therapeutics, Inc., priority 2006, published 2008)

tested on: soluble epoxide hydrolase (sEH); assay: Fluorescent Assay for Mouse and Human Soluble Epoxide Hydrolase (CMNPC substrate); type: biochemical; conditions: Concentration 2000 nM

| Structure (SMILES) | % Inhibition [%] |
| --- | --- |
| O=C(CCC12CC3CC(CC(C3)C1)C2)C(=O)NCCc1ccc(OCc2ccccc2)cc1 [Compound 25] | 23 |

tested on: not given; assay: not given; conditions: not given

| Structure (SMILES) | melting point [°C] |
| --- | --- |
| O=C(Nc1ccc(-n2ccnc2)cc1)C(O)C12CC3CC(CC(C3)C1)C2 (stereo not shown) [Compound 119, 2-Adamantan-1-yl-2-hydroxy-N-(4-imidazol-1-yl-phenyl)-acetamide] | 219 to 220 |
| O=C(Nc1cccc(OCc2ccccc2)c1)C(O)C12CC3CC(CC(C3)C1)C2 (stereo not shown) [Compound 110, 2-Adamantan-1-yl-N-(3-benzyloxy-phenyl)-2-hydroxy-acetamide] | 130 to 132 |
| O=C(Nc1cccc(OCc2ccccc2)c1)C(=O)C12CC3CC(CC(C3)C1)C2 [Compound 13, 2-Adamantan-1-yl-N-(3-benzyloxy-phenyl)-2-oxo-acetamide] | 106 to 107 |

tested on: soluble epoxide hydrolase (sEH); assay: Fluorescent Assay for Mouse and Human Soluble Epoxide Hydrolase (CMNPC substrate); type: biochemical; conditions: Concentration 500 nM
Excerpt: Fluorescent Assay for Mouse and Human Soluble Epoxide Hydrolase Recombinant mouse sEH (MsEH) and human sEH (HsEH) were produced in a baculovirus expression system as previously reported. Grant et al., J. Biol. Chem., 268:17628-17633 (1993); Beetham et al., Arch. Biochem. Biophys., 305:197-201 (1993). The expressed proteins were purified from cell lysate by affinity chromatography. Wixtrom et al., Anal. Biochem., 169:71-80 (1988). Protein concentration was quantified using the Pierce BCA assay using bovine serum albumin as the calibrating standard. The preparations were at least 97% pure as judged by SDS-PAGE and scanning densitometry. They contained no detectable esterase or glutathione transferase activity which can interfere with the assay. The assay was also evaluated with similar results in crude cell lysates or homogenate of tissues. The IC50s for each inhibitor were according to the following procedure: [drawing 218] […] Jones P. D. et. al.; Analytical Biochemistry 2005; 343: pp. 66-75) Bis/Tris HCl 25 mM pH 7.0 containing 0.1 mg/mL of BSA (buffer […] at 0.25 mM in DMSO. Mother solution of enzyme in buffer A (Mouse sEH at 6 μg/mL and Human sEH at 5 μg/mL). Inhibitor dissolved in DMSO at the appropriate concentration. In a black 96 well plate, fill all the wells with 150 μL of buffer A. Add 2 μL of DMSO in well A2 and A3, and then add 2 μL of inhibitor solution in A1 and A4 through A12. Add 150 μL of buffer A in row A, then mix several time and transfer 150 μL to row B. Repeat this operation up to row H. The 150 μL removed from row H is discarded. Add 20 μL of buffer A in column 1 and 2, then add 20 μL of enzyme solution to column 3 to 12. Incubate the plate for 5 minutes in the plate reader at 30° C. During incubation prepare the working solution of substrate by mixing 3.68 mL of buffer A (4×0.920 mL) with 266 μL (2×133 μL) of substrate solution). At t=0, add 30 μL of working substrate solution with multi-channel pipette labeled “Briggs 303” and start the reading ([S]final: 5 μM). Read with ex: 330 nm (20 nm) and em: 465 nm (20 nm) every 30 second for 10 minutes. The velocities are used to analyze and calculate the IC50s. Tables 4-6 show the activity of compounds when tested with the assay at 50, 500, 5000, 50000, and 500000 nM.

| Structure (SMILES) | % Inhibition [%] |
| --- | --- |
| O=C(Nc1cccc(OCc2ccccc2)c1)C(O)C12CC3CC(CC(C3)C1)C2 (stereo not shown) [Compound 110, 2-Adamantan-1-yl-N-(3-benzyloxy-phenyl)-2-hydroxy-acetamide] | 79 |
| O=C(Nc1cccc(OCCCN2CCOCC2)c1)C(=O)c1ccc(C(F)(F)F)cc1 [Compound 1, N-[3-(3-Morpholin-4-yl-propoxy)-phenyl]-2-oxo-2-(4-trifluoromethyl-phenyl)-acetamide] | 65 |
| Cc1ccc(S(=O)(=O)N2CCC(NC(=O)C(O)CC34CC5CC(CC(C5)C3)C4)CC2)cc1 (stereo not shown) [Compound 128, 3-Adamantan-1-yl-2-hydroxy-N-[1-(toluene-4-sulfonyl)-piperidin-4-yl]-propionamide] | 89 |
| O=C(NCC12CC3CC(CC(C3)C1)C2)C(O)Cc1ccc(OCc2ccccc2)cc1 (stereo not shown) [Compound 106, N-Adamantan-1-ylmethyl-3-(4-benzyloxy-phenyl)-2-hydroxy-propionamide] | 82 |

same assay, conditions: Concentration 5000 nM

| Structure (SMILES) | % Inhibition [%] |
| --- | --- |
| CCCC(=O)N1CCC(NC(=O)C(O)C2CCCCC2)CC1 (stereo not shown) [Compound 116, N-(1-Butyryl-piperidin-4-yl)-2-cyclohexyl-2-hydroxy-acetamide] | 81 |
| O=C(Nc1ccc(OCc2ccccc2)cc1)C(=O)C12CC3CC(CC(C3)C1)C2 [Compound 20] | 93 |
| O=C(O)CCCCCCCCCCCNC(=O)C(O)Cc1ccc(C(F)(F)F)cc1 (stereo not shown) [Compound 164, 12-(2-Hydroxy-3-(4-(trifluoromethyl)phenyl)propanamido)dodecanoicacid] | 59 |
| O=C(Nc1ccc(-n2ccnc2)cc1)C(=O)C12CC3CC(CC(C3)C1)C2 [Compound 21] | 93 |
| O=C(NCCc1ccc(OCc2ccccc2)cc1)C(O)C12CC3CC(CC(C3)C1)C2 (stereo not shown) [Compound 150, N-(4-(Benzyloxy)phenethyl)-2-adamantyl-2-hydroxyacetamide] | 87 |
| O=C(O)CCCCCCCCCCCNC(=O)C(O)CCC12CC3CC(CC(C3)C1)C2 (stereo not shown) [Compound 165, 12-(4-Adamantan-1-yl-2-hydroxybutanamido)dodecanoic acid] | 86 |
| O=C(NC1CCN(S(=O)(=O)c2ccc(Cl)cc2)CC1)C(O)CCC12CC3CC(CC(C3)C1)C2 (stereo not shown) [Compound 152, N-(1-(4-Chlorophenylsulfonyl)piperidin-4-yl)-4-adamantyl-2-hydroxybutanamide] | 98 |
| O=C(NC1CCN(S(=O)(=O)c2cccc(C(F)(F)F)c2)CC1)C(O)C12CC3CC(CC(C3)C1)C2 (stereo not shown) [Compound 123, 2-Adamantan-1-yl-2-hydroxy-N-[1-(3-trifluoromethyl-benzenesulfonyl)-piperidin-4-yl]-acetamide] | 98 |
| O=C(NCC12CC3CC(CC(C3)C1)C2)C(O)c1ccc(C(F)(F)F)cc1 (stereo not shown) [Compound 121, N-Adamantan-1-ylmethyl-2-hydroxy-2-(4-trifluoromethyl-phenyl)-acetamide] | 91 |
| O=C(CC12CC3CC(CC(C3)C1)C2)C(=O)NCCc1ccc(OCc2ccccc2)cc1 [Compound 24] | 87 |
| O=C(Nc1cccc(OCc2ccccc2)c1)C(O)CCc1ccc(C(F)(F)F)cc1 (stereo not shown) [Compound 131] | 98 |
| O=C(NCc1ccc(OCc2ccccc2)cc1)C(O)C12CC3CC(CC(C3)C1)C2 (stereo not shown) [Compound 134, N-(4-(Benzyloxy)benzyl)-2-adamantan-1-yl-2-hydroxyacetamide] | 83 |
| O=C(NCc1ccc(OCc2ccccc2)cc1)C(O)CCC12CC3CC(CC(C3)C1)C2 (stereo not shown) [Compound 146, N-(4-(Benzyloxy)benzyl)-4-adamantyl-2-hydroxybutanamide] | 73 |
| O=C(O)CCCCCCCCCCCNC(=O)C(O)c1ccc(C(F)(F)F)cc1 (stereo not shown) [Compound 159, 12-(2-Hydroxy-2-(4-(trifluoromethyl)phenyl)acetamido)dodecanoic acid] | 86 |
| O=C(Cc1ccc(OCc2ccccc2)cc1)C(=O)NCC12CC3CC(CC(C3)C1)C2 [Compound 6, N-Adamantan-1-ylmethyl-3-(4-benzyloxy-phenyl)-2-oxo-propionamide] | 71 |
| O=C(O)CCCCCCCCCCCNC(=O)C(O)CC12CC3CC(CC(C3)C1)C2 (stereo not shown) [Compound 161, 12-(3-Adamantan-1-yl-2-hydroxypropanamido)dodecanoic acid] | 90 |
| Cc1ccc(S(=O)(=O)N2CCC(NC(=O)C(=O)C3CCCCC3)CC2)cc1 [Compound 10, 2-Cyclohexyl-2-oxo-N-[1-(toluene-4-sulfonyl)-piperidin-4-yl]-acetamide] | 70 |
| O=C(Nc1cccc(OCc2ccccc2)c1)C(=O)c1ccc(C(F)(F)F)cc1 [Compound 5, N-(3-Benzyloxy-phenyl)-2-oxo-2-(4-trifluoromethyl-phenyl)-acetamide] | 71 |
| Cc1ccc(S(=O)(=O)N2CCC(CNC(=O)C(O)C34CC5CC(CC(C5)C3)C4)CC2)cc1 (stereo not shown) [Compound 127, 2-Adamantan-1-yl-2-hydroxy-N-[1-(toluene-4-sulfonyl)-piperidin-4-ylmethyl]-acetamide] | 84 |
| O=C(NCCc1ccc(OCc2ccccc2)cc1)C(O)CCC1CCCCC1 (stereo not shown) [Compound 141, N-(4-(Benzyloxy)phenethyl)-4-cyclohexyl-2-hydroxybutanamide] | 91 |
| O=C(NCc1ccc(OCc2ccccc2)cc1)C(O)CC12CC3CC(CC(C3)C1)C2 (stereo not shown) [Compound 125, 3-Adamantan-1-yl-N-(4-benzyloxy-benzyl)-2-hydroxy-propionamide] | 98 |
| O=C(NCCc1ccc(OCc2ccccc2)cc1)C(O)CCc1ccc(C(F)(F)F)cc1 (stereo not shown) [Compound 139, N-(4-(Benzyloxy)phenethyl)-2-hydroxy-4-(4-(trifluoromethyl)phenyl)butanamide] | 70 |
| O=C(Nc1cccc(OCc2ccccc2)c1)C(O)c1ccc(C(F)(F)F)cc1 (stereo not shown) [Compound 105, N-(3-Benzyloxy-phenyl)-2-hydroxy-2-(4-trifluoromethyl-phenyl)-acetamide] | 99 |
| O=C(Nc1cccc(OCc2ccccc2)c1)C(=O)C12CC3CC(CC(C3)C1)C2 [Compound 13, 2-Adamantan-1-yl-N-(3-benzyloxy-phenyl)-2-oxo-acetamide] | 86 |
| O=C(Cc1ccc(OCc2ccccc2)cc1)C(=O)NC12CC3CC(CC(C3)C1)C2 [Compound 7, N-Adamantan-1-yl-3-(4-benzyloxy-phenyl)-2-oxo-propionamide] | 75 |

same assay, conditions: Concentration 50000 nM

| Structure (SMILES) | % Inhibition [%] |
| --- | --- |
| O=C(Nc1ccc(-n2ccnc2)cc1)C(O)C12CC3CC(CC(C3)C1)C2 (stereo not shown) [Compound 119, 2-Adamantan-1-yl-2-hydroxy-N-(4-imidazol-1-yl-phenyl)-acetamide] | 98 |
| O=C(NCCc1ccc(OCc2ccccc2)cc1)C(O)Cc1ccc(C(F)(F)F)cc1 (stereo not shown) [Compound 144, N-(4-(Benzyloxy)phenethyl)-2-hydroxy-3-(4-(trifluoromethyl)phenyl)propanamide] | 66 |
| O=C(Nc1ccc(-n2ccnc2)cc1)C(O)C1CCCCC1 (stereo not shown) [Compound 112, 2-Cyclohexyl-2-hydroxy-N-(4-imidazol-1-yl-phenyl)-acetamide] | 80 |
| O=C(Nc1cccc(OCc2ccccc2)c1)C(=O)C1CCCCC1 [Compound 12, N-(3-Benzyloxy-phenyl)-2-cyclohexyl-2-oxo-acetamide] | 99 |
| CCCC(=O)N1CCC(NC(=O)C(=O)c2ccc(C(F)(F)F)cc2)CC1 [Compound 14, N-(1-Butyryl-piperidin-4-yl)-2-oxo-2-(4-trifluoromethyl-phenyl)-acetamide] | 77 |
| O=C(Nc1ccc(OCc2ccccc2)cc1)C(O)CC12CC3CC(CC(C3)C1)C2 (stereo not shown) [Compound 117, 3-Adamantan-1-yl-N-(4-benzyloxy-phenyl)-2-hydroxy-propionamide] | 81 |

same assay, conditions: Concentration 500000 nM

| Structure (SMILES) | % Inhibition [%] |
| --- | --- |
| O=C(Nc1ccc(-n2ccnc2)cc1)C(O)c1ccc(C(F)(F)F)cc1 (stereo not shown) [Compound 109, 2-Hydroxy-N-(4-imidazol-1-yl-phenyl)-2-(4-trifluoromethyl-phenyl)-acetamide] | 80 |
